Assay results published in US9758529B2, “Fused dihydro-4H-pyrazolo[5,1-C][1,4]oxazinyl compounds and analogs for treating CNS disorders” (Sunovion Pharmaceuticals Inc., priority 2015, dated 2017).

Test system: mice
Experiment: Neuropharmacological Assay (SmartCube)
Format: in vivo
Settings: i.p. 15 min before behavioral test; 3 doses, most efficacious dose(s) presented
Excerpt: Neurosci. […] As reported in Roberds, because psychiatric diseases generally result from disorders of cell-cell communication or circuitry, intact systems are useful in detecting improvement in disease-relevant endpoints. These endpoints are typically behavioral in nature, often requiring human observation and interpretation. To facilitate testing of multiple compounds for behavioral effects relevant to psychiatric disease, PsychoGenics, Inc. (Tarrytown, N.Y., “PGI”) developed SmartCube™, an automated system in which behaviors of compound-treated mice are captured by digital video and analyzed with computer algorithms. […] PGI Analytical Systems uses data from SmartCube™ to compare the behavioral signature of a test compound to a database of behavioral signatures obtained using a large set of diverse reference compounds. (The composition of the database as well as validation of the method is further described in Roberds). In this way, the neuropharmacological effects of a test compound can be predicted by similarity to major classes of compounds, such as antipsychotics, anxiolytics and antidepressants.
The SmartCube™ system produces an activity signature indicating the probability that the activity of the test compound at the administered dose matches a given class of neuropharmacological agents. (See, e.g., Roberds, FIGS. 2 and 3). The test compound is simultaneously compared against multiple classes of agents; thus, a separate probability is generated for each behavioral effect measured (e.g., anxiolytic activity, analgesic activity, etc.). In Table 2 and 2B, these probabilities are reported for each behavioral effect measured as follows:
where LOQ is the limit of quantification.
Provided compounds were dissolved in a mixture of Pharmasolve™ (N-methyl-2-pyrrolidone), polyethylene glycol and propylene glycol, and were injected i.p. 15 min. before the behavioral test. For each compound, injections were administered at 3 different doses. For each behavioral effect measured, results for the most efficacious dose(s) are presented.

CNC[C@H]1OCCn2nc3ccccc3c21.Cl [Compound 2, (R)-(3,4-dihydro-1H-[1,4]oxazino[4,3-b]indazol-1-yl)-N-methylmethanaminium chloride]
++ (5%≦ ++ <25%): AD: ADHD (probability of class match) | AX: anxiolytic (probability of class match)
+ (LOQ≦ + <5%): AG: analgesic (probability of class match) | CE: cognitive enhancer (probability of class match) | MS: mood stabilizer (probability of class match) | PS: anti-psychotic (probability of class match) | SD: sedative hypnotic (probability of class match) | UN: uncharacterized CNS activity (probability of class match) | XG: anxiogenic (probability of class match)
++++ (50%≦ ++++): DP: anti-depressant (probability of class match) | HA: hallucinogen (probability of class match)

CN(C)C[C@@H]1OCCn2nc3ccccc3c21 [Compound 3, (S)-(3,4-dihydro-1H-[1,4]oxazino[4,3-b]indazol-1-yl)-N,N-dimethylmethanaminium chloride]
+++ (25%≦ +++ <50%): UN: uncharacterized CNS activity (probability of class match)
+ (LOQ≦ + <5%): AD: ADHD (probability of class match) | AG: analgesic (probability of class match) | AX: anxiolytic (probability of class match) | CE: cognitive enhancer (probability of class match) | HA: hallucinogen (probability of class match) | MS: mood stabilizer (probability of class match) | SD: sedative hypnotic (probability of class match) | XG: anxiogenic (probability of class match)
++ (5%≦ ++ <25%): DP: anti-depressant (probability of class match) | PS: anti-psychotic (probability of class match)

CN(C)C[C@H]1OCCn2nc3ccccc3c21.Cl [Compound 4, (R)-(3,4-dihydro-1H-[1,4]oxazino[4,3-b]indazol-1-yl)-N,N-dimethylmethanaminium chloride]
++++ (50%≦ ++++): DP: anti-depressant (probability of class match)
+ (LOQ≦ + <5%): AX: anxiolytic (probability of class match) | MS: mood stabilizer (probability of class match) | PS: anti-psychotic (probability of class match) | SD: sedative hypnotic (probability of class match) | XG: anxiogenic (probability of class match)
++ (5%≦ ++ <25%): AD: ADHD (probability of class match) | AG: analgesic (probability of class match) | CE: cognitive enhancer (probability of class match) | HA: hallucinogen (probability of class match) | UN: uncharacterized CNS activity (probability of class match)

CNCC1OCCn2nc3ccc(Cl)cc3c21.Cl (stereo not shown) [Compound 5, 1-(9-chloro-3,4-dihydro-1H-[1,4]oxazino[4,3-b]indazol-1-yl)-N-methylmethanaminium chloride]
+ (LOQ≦ + <5%): AD: ADHD (probability of class match) | AX: anxiolytic (probability of class match) | CE: cognitive enhancer (probability of class match) | HA: hallucinogen (probability of class match) | MS: mood stabilizer (probability of class match) | PS: anti-psychotic (probability of class match) | SD: sedative hypnotic (probability of class match) | UN: uncharacterized CNS activity (probability of class match) | XG: anxiogenic (probability of class match)
++ (5%≦ ++ <25%): AG: analgesic (probability of class match) | DP: anti-depressant (probability of class match)

CN(C)CC1OCCn2nc3ccc(Cl)cc3c21.Cl (stereo not shown) [Compound 6, 1-(9-chloro-3,4-dihydro-1H-[1,4]oxazino[4,3-b]indazol-1-yl)-N,N-dimethylmethanaminium chloride]
+++ (25%≦ +++ <50%): DP: anti-depressant (probability of class match)
++ (5%≦ ++ <25%): AG: analgesic (probability of class match) | AX: anxiolytic (probability of class match) | CE: cognitive enhancer (probability of class match) | PS: anti-psychotic (probability of class match)
+ (LOQ≦ + <5%): AD: ADHD (probability of class match) | HA: hallucinogen (probability of class match) | MS: mood stabilizer (probability of class match) | SD: sedative hypnotic (probability of class match) | UN: uncharacterized CNS activity (probability of class match) | XG: anxiogenic (probability of class match)

CNCC1OCCn2nc3ccc(F)cc3c21 (stereo not shown) [Compound 7, 1-(9-fluoro-3,4-dihydro-1H-[1,4]oxazino[4,3-b]indazol-1-yl)-N-methylmethanaminium chloride]
+ (LOQ≦ + <5%): AD: ADHD (probability of class match) | AX: anxiolytic (probability of class match) | CE: cognitive enhancer (probability of class match) | HA: hallucinogen (probability of class match) | MS: mood stabilizer (probability of class match) | PS: anti-psychotic (probability of class match) | SD: sedative hypnotic (probability of class match) | UN: uncharacterized CNS activity (probability of class match) | XG: anxiogenic (probability of class match)
++++ (50%≦ ++++): DP: anti-depressant (probability of class match)
++ (5%≦ ++ <25%): AG: analgesic (probability of class match)

CN(C)CC1OCCn2nc3ccc(F)cc3c21.Cl (stereo not shown) [Compound 8, 1-(9-fluoro-3,4-dihydro-1H-[1,4]oxazino[4,3-b]indazol-1-yl)-N,N-dimethylmethanaminium chloride]
+ (LOQ≦ + <5%): AD: ADHD (probability of class match) | HA: hallucinogen (probability of class match) | MS: mood stabilizer (probability of class match) | SD: sedative hypnotic (probability of class match) | UN: uncharacterized CNS activity (probability of class match)
+++ (25%≦ +++ <50%): DP: anti-depressant (probability of class match)
++ (5%≦ ++ <25%): AG: analgesic (probability of class match) | AX: anxiolytic (probability of class match) | CE: cognitive enhancer (probability of class match) | PS: anti-psychotic (probability of class match) | XG: anxiogenic (probability of class match)

Cl.NCC1OCCn2nc3ccc(F)cc3c21 (stereo not shown) [Compound 9, (9-fluoro-3,4-dihydro-1H-[1,4]oxazino[4,3-b]indazol-1-yl)methanaminium chloride]
+ (LOQ≦ + <5%): AX: anxiolytic (probability of class match) | HA: hallucinogen (probability of class match) | MS: mood stabilizer (probability of class match) | PS: anti-psychotic (probability of class match) | SD: sedative hypnotic (probability of class match) | XG: anxiogenic (probability of class match)
++ (5%≦ ++ <25%): AD: ADHD (probability of class match) | AG: analgesic (probability of class match) | CE: cognitive enhancer (probability of class match) | DP: anti-depressant (probability of class match)
+++ (25%≦ +++ <50%): UN: uncharacterized CNS activity (probability of class match)

CNCC1OCCn2nc3cc(F)ccc3c21 (stereo not shown) [Compound 10, 1-(8-fluoro-3,4-dihydro-1H-[1,4]oxazino[4,3-b]indazol-1-yl)-N-methylmethanaminium]
++++ (50%≦ ++++): DP: anti-depressant (probability of class match)
++ (5%≦ ++ <25%): AG: analgesic (probability of class match) | AX: anxiolytic (probability of class match) | PS: anti-psychotic (probability of class match) | XG: anxiogenic (probability of class match)
+ (LOQ≦ + <5%): AD: ADHD (probability of class match) | CE: cognitive enhancer (probability of class match) | HA: hallucinogen (probability of class match) | MS: mood stabilizer (probability of class match) | SD: sedative hypnotic (probability of class match) | UN: uncharacterized CNS activity (probability of class match)

CN(C)CC1OCCn2nc3cc(F)ccc3c21.Cl (stereo not shown) [Compound 11, 1-(8-fluoro-3,4-dihydro-1H-[1,4]oxazino[4,3-b]indazol-1-yl)-N,N-dimethylmethanaminium]
+ (LOQ≦ + <5%): AD: ADHD (probability of class match) | AG: analgesic (probability of class match) | AX: anxiolytic (probability of class match) | CE: cognitive enhancer (probability of class match) | HA: hallucinogen (probability of class match) | MS: mood stabilizer (probability of class match) | UN: uncharacterized CNS activity (probability of class match) | XG: anxiogenic (probability of class match)
++ (5%≦ ++ <25%): PS: anti-psychotic (probability of class match) | SD: sedative hypnotic (probability of class match)
+++ (25%≦ +++ <50%): DP: anti-depressant (probability of class match)

Cl.NCC1OCCn2nc3cc(F)ccc3c21 (stereo not shown) [Compound 12, (8-fluoro-3,4-dihydro-1H-[1,4]oxazino[4,3-b]indazol-1-yl)methanaminium]
+ (LOQ≦ + <5%): AD: ADHD (probability of class match) | AG: analgesic (probability of class match) | AX: anxiolytic (probability of class match) | CE: cognitive enhancer (probability of class match) | DP: anti-depressant (probability of class match) | HA: hallucinogen (probability of class match) | MS: mood stabilizer (probability of class match) | PS: anti-psychotic (probability of class match) | SD: sedative hypnotic (probability of class match) | UN: uncharacterized CNS activity (probability of class match) | XG: anxiogenic (probability of class match)
